Source: patent US10538554B2, “Peptides and uses therefor as antiviral agents” (priority 2015, dated 2020)
Bridge positions count the residues as written; N and C are the ends. Square brackets hold non-standard residues; d marks the D form. Peptide text beside a SMILES is read from it.

Assays:
[1] = tested on: H9N2 A/Iran/16/2000; conditions: 48 h, 500 μM
[2] = tested on: H1N1 A1/Malaysia/302/1954; conditions: A1/Malaysia/302/1954, 48 h, 500 μM
[3] = tested on: H3N8 A/Miami/2/63; conditions: A/Miami/2/63, 48 h, 500 μM

## C[C@H](O)[C@H]1NC(=O)[C@H](N)CSSC[C@H](C(=O)O)NC(=O)[C@@H](CC(N)=O)NC(=O)[C@@H](CO)NC(=O)[C@@H](Cc2ccccc2)NC(=O)[C@@H](CCCNC(=N)N)NC(=O)[C@@H](CO)NC(=O)[C@@H](CCCCN)NC1=O [PSP 16, H-ctksrfsnc-OH] (H-[dC][dT][dK][dS][dR][dF][dS][dN][dC]-OH; disulfide 1-9)
[1]
  % inhibition H9N2: 45.5%
[2]
  % inhibition H1N1: 13.5%
[3]
  % inhibition H3N8: 71.1%

## CC[C@@H](C)[C@H]1NC(=O)[C@@H](Cc2ccccc2)NC(=O)[C@@H](CCCNC(=N)N)NC(=O)[C@@H](CO)NC(=O)[C@@H]([C@H](C)O)NC(=O)[C@@H]([C@H](C)O)NC(=O)[C@H](NC(=O)[C@@H](CCCCN)NC(=O)[C@@H](CCCCN)NC(=O)[C@@H](CCCNC(=N)N)NC(=O)[C@H](N)CCCNC(=N)N)CSSC[C@H](C(=O)O)NC(=O)[C@@H](CC(N)=O)NC1=O [PSP II A17, H-rrkkcttsrfinc-OH] (H-[dR][dR][dK][dK][dC][dT][dT][dS][dR][dF][dI][dN][dC]-OH; disulfide 5-13)
[1]
  % inhibition H9N2: 80%
[2]
  % inhibition H1N1: 67.3%
[3]
  % inhibition H3N8: 70.6%

## CC[C@@H](C)[C@H]1NC(=O)[C@@H](Cc2ccccc2)NC(=O)[C@@H](CCCNC(=N)N)NC(=O)[C@@H](CO)NC(=O)[C@@H](Cc2ccccc2)NC(=O)[C@@H]([C@H](C)O)NC(=O)[C@H](NC(=O)[C@@H](CCCCN)NC(=O)[C@@H](CCCCN)NC(=O)[C@@H](CCCNC(=N)N)NC(=O)[C@H](N)CCCNC(=N)N)CSSC[C@H](C(=O)O)NC(=O)[C@@H](CC(N)=O)NC1=O [PSP II A5, H-rrkkctfsrfinc-OH] (H-[dR][dR][dK][dK][dC][dT][dF][dS][dR][dF][dI][dN][dC]-OH; disulfide 5-13)
[1]
  % inhibition H9N2: 50%
[2]
  % inhibition H1N1: 82.8%
[3]
  % inhibition H3N8: 100%

## CC[C@@H](C)[C@H]1NC(=O)[C@@H](Cc2ccccc2)NC(=O)[C@@H](CCCNC(=N)N)NC(=O)[C@@H](CO)NC(=O)CNC(=O)[C@@H]([C@H](C)O)NC(=O)[C@H](NC(=O)[C@@H](CCCCN)NC(=O)[C@@H](CCCCN)NC(=O)[C@@H](CCCNC(=N)N)NC(=O)[C@H](N)CCCNC(=N)N)CSSC[C@H](C(=O)O)NC(=O)[C@@H](CC(N)=O)NC1=O [PSP II A6, H-rrkkctGsrfinc-OH] (H-[dR][dR][dK][dK][dC][dT]G[dS][dR][dF][dI][dN][dC]-OH; disulfide 5-13)
[1]
  % inhibition H9N2: 20%
[2]
  % inhibition H1N1: 1.7%
[3]
  % inhibition H3N8: 44.4%

## CC[C@@H](C)[C@H]1NC(=O)[C@@H](Cc2ccccc2)NC(=O)[C@@H](CCCNC(=N)N)NC(=O)[C@@H](CO)NC(=O)[C@@H](CCCNC(=N)N)NC(=O)[C@@H]([C@H](C)O)NC(=O)[C@H](NC(=O)[C@@H](CCCCN)NC(=O)[C@@H](CCCCN)NC(=O)[C@@H](CCCNC(=N)N)NC(=O)[C@H](N)CCCNC(=N)N)CSSC[C@H](C(=O)O)NC(=O)[C@@H](CC(N)=O)NC1=O [PSP II A15, H-rrkkctrsrfinc-OH] (H-[dR][dR][dK][dK][dC][dT][dR][dS][dR][dF][dI][dN][dC]-OH; disulfide 5-13)
[1]
  % inhibition H9N2: 90%
[2]
  % inhibition H1N1: 57.7%
[3]
  % inhibition H3N8: 79.4%

## C[C@H](O)[C@H]1NC(=O)[C@H](N)CSSC[C@H](C(=O)O)NC(=O)[C@@H](CC(N)=O)NC(=O)[C@@H](CC(N)=O)NC(=O)[C@@H](Cc2ccccc2)NC(=O)[C@@H](CCCNC(=N)N)NC(=O)[C@@H](CO)NC(=O)[C@@H](CCCCN)NC1=O [PSP 12, H-ctksrfnnc-OH] (H-[dC][dT][dK][dS][dR][dF][dN][dN][dC]-OH; disulfide 1-9)
[1]
  % inhibition H9N2: 27.3%
[2]
  % inhibition H1N1: 32.7%
[3]
  % inhibition H3N8: 70.1%

## CC[C@@H](C)[C@H]1NC(=O)[C@@H](Cc2ccccc2)NC(=O)[C@@H](CCCNC(=N)N)NC(=O)[C@@H](CO)NC(=O)[C@@H](CC(=O)O)NC(=O)[C@@H]([C@H](C)O)NC(=O)[C@H](NC(=O)[C@@H](CCCCN)NC(=O)[C@@H](CCCCN)NC(=O)[C@@H](CCCNC(=N)N)NC(=O)[C@H](N)CCCNC(=N)N)CSSC[C@H](C(=O)O)NC(=O)[C@@H](CC(N)=O)NC1=O [PSP II A3, H-rrkkctdsrfinc-OH] (H-[dR][dR][dK][dK][dC][dT][dD][dS][dR][dF][dI][dN][dC]-OH; disulfide 5-13)
[1]
  % inhibition H9N2: 40%
[2]
  % inhibition H1N1: 44.8%
[3]
  % inhibition H3N8: 85.2%

## CC[C@@H](C)[C@H]1NC(=O)[C@@H](Cc2ccccc2)NC(=O)[C@@H](CCCNC(=N)N)NC(=O)[C@@H](CO)NC(=O)[C@@H](Cc2c[nH]c3ccccc23)NC(=O)[C@@H]([C@H](C)O)NC(=O)[C@H](NC(=O)[C@@H](CCCCN)NC(=O)[C@@H](CCCCN)NC(=O)[C@@H](CCCNC(=N)N)NC(=O)[C@H](N)CCCNC(=N)N)CSSC[C@H](C(=O)O)NC(=O)[C@@H](CC(N)=O)NC1=O [PSP II A19, H-rrkkctwsrfinc-OH] (H-[dR][dR][dK][dK][dC][dT][dW][dS][dR][dF][dI][dN][dC]-OH; disulfide 5-13)
[1]
  % inhibition H9N2: 100%
[2]
  % inhibition H1N1: 88.4%
[3]
  % inhibition H3N8: 82.4%

## CC[C@@H](C)[C@H]1NC(=O)[C@@H](Cc2ccccc2)NC(=O)[C@@H](CCCNC(=N)N)NC(=O)[C@@H](CO)NC(=O)[C@@H](C(C)C)NC(=O)[C@@H]([C@H](C)O)NC(=O)[C@H](NC(=O)[C@@H](CCCCN)NC(=O)[C@@H](CCCCN)NC(=O)[C@@H](CCCNC(=N)N)NC(=O)[C@H](N)CCCNC(=N)N)CSSC[C@H](C(=O)O)NC(=O)[C@@H](CC(N)=O)NC1=O [PSP II A18, H-rrkkctvsrfinc-OH] (H-[dR][dR][dK][dK][dC][dT][dV][dS][dR][dF][dI][dN][dC]-OH; disulfide 5-13)
[1]
  % inhibition H9N2: 70%
[2]
  % inhibition H1N1: 42.3%
[3]
  % inhibition H3N8: 47%

## CC[C@@H](C)[C@H]1NC(=O)[C@@H](Cc2ccccc2)NC(=O)[C@@H](CCCNC(=N)N)NC(=O)[C@@H](CO)NC(=O)[C@@H](CCCCN)NC(=O)[C@@H]([C@H](C)O)NC(=O)[C@H](NC(=O)[C@@H](CCCCN)NC(=O)[C@@H](CCCCN)NC(=O)[C@@H](CCCNC(=N)N)NC(=O)[C@H](N)CCCNC(=N)N)CSSC[C@H](C(=O)O)NC(=O)[C@@H](CC(N)=O)NC1=O [PSP II A9, H-rrkkctksrfinc-OH] (H-[dR][dR][dK][dK][dC][dT][dK][dS][dR][dF][dI][dN][dC]-OH; disulfide 5-13)
[1]
  % inhibition H9N2: 50%
[2]
  % inhibition H1N1: 81%
[3]
  % inhibition H3N8: 77.8%

## C[C@H](O)[C@H]1NC(=O)[C@H](N)CSSC[C@H](C(=O)O)NC(=O)[C@@H](CC(N)=O)NC(=O)[C@@H](CCCCN)NC(=O)[C@@H](Cc2ccccc2)NC(=O)[C@@H](CCCNC(=N)N)NC(=O)[C@@H](CO)NC(=O)[C@@H](CCCCN)NC1=O [PSP 9, H-ctksrfknc-OH] (H-[dC][dT][dK][dS][dR][dF][dK][dN][dC]-OH; disulfide 1-9)
[1]
  % inhibition H9N2: 31.8%
[2]
  % inhibition H1N1: 17.6%
[3]
  % inhibition H3N8: 62.9%

## CC[C@@H](C)[C@H]1NC(=O)[C@@H](Cc2ccccc2)NC(=O)[C@@H](CCCNC(=N)N)NC(=O)[C@@H](CO)NC(=O)[C@@H](CCC(N)=O)NC(=O)[C@@H]([C@H](C)O)NC(=O)[C@H](NC(=O)[C@@H](CCCCN)NC(=O)[C@@H](CCCCN)NC(=O)[C@@H](CCCNC(=N)N)NC(=O)[C@H](N)CCCNC(=N)N)CSSC[C@H](C(=O)O)NC(=O)[C@@H](CC(N)=O)NC1=O [PSP II A14, H-rrkkctqsrfinc-OH] (H-[dR][dR][dK][dK][dC][dT][dQ][dS][dR][dF][dI][dN][dC]-OH; disulfide 5-13)
[1]
  % inhibition H9N2: 80%
[2]
  % inhibition H1N1: 73%
[3]
  % inhibition H3N8: 85%

## CC[C@@H](C)[C@H]1NC(=O)[C@@H](Cc2ccccc2)NC(=O)[C@@H](CCCNC(=N)N)NC(=O)[C@@H](CO)NC(=O)[C@@H](C)NC(=O)[C@@H]([C@H](C)O)NC(=O)[C@H](NC(=O)[C@@H](CCCCN)NC(=O)[C@@H](CCCCN)NC(=O)[C@@H](CCCNC(=N)N)NC(=O)[C@H](N)CCCNC(=N)N)CSSC[C@H](C(=O)O)NC(=O)[C@@H](CC(N)=O)NC1=O [PSP II A1, H-rrkkctasrfinc-OH] (H-[dR][dR][dK][dK][dC][dT][dA][dS][dR][dF][dI][dN][dC]-OH; disulfide 5-13)
[1]
  % inhibition H9N2: 40%
[3]
  % inhibition H3N8: 25.9%

## CC[C@@H](C)[C@H]1NC(=O)[C@@H](Cc2ccccc2)NC(=O)[C@@H](CCCNC(=N)N)NC(=O)[C@@H](CO)NC(=O)[C@@H](CCSC)NC(=O)[C@@H]([C@H](C)O)NC(=O)[C@H](NC(=O)[C@@H](CCCCN)NC(=O)[C@@H](CCCCN)NC(=O)[C@@H](CCCNC(=N)N)NC(=O)[C@H](N)CCCNC(=N)N)CSSC[C@H](C(=O)O)NC(=O)[C@@H](CC(N)=O)NC1=O [PSP II A11, H-rrkkctmsrfinc-OH] (H-[dR][dR][dK][dK][dC][dT][dM][dS][dR][dF][dI][dN][dC]-OH; disulfide 5-13)
[1]
  % inhibition H9N2: 40%
[2]
  % inhibition H1N1: 65.4%
[3]
  % inhibition H3N8: 76.5%

## CC[C@@H](C)[C@H]1NC(=O)[C@@H](Cc2ccccc2)NC(=O)[C@@H](CCCNC(=N)N)NC(=O)[C@@H](CO)NC(=O)[C@@H](CC(N)=O)NC(=O)[C@@H]([C@H](C)O)NC(=O)[C@H](NC(=O)[C@@H](CCCCN)NC(=O)[C@@H](CCCCN)NC(=O)[C@@H](CCCNC(=N)N)NC(=O)[C@H](N)CCCNC(=N)N)CSSC[C@H](C(=O)O)NC(=O)[C@@H](CC(N)=O)NC1=O [PSP II A12, H-rrkkctnsrfinc-OH] (H-[dR][dR][dK][dK][dC][dT][dN][dS][dR][dF][dI][dN][dC]-OH; disulfide 5-13)
[2]
  % inhibition H1N1: 53.8%
[3]
  % inhibition H3N8: 70.6%
